Several values for one entry are separate records, joined by “and”; a condition that tells them apart may be missing. Equal values may be shown once.
Legend:
Assay type in all cases: functional
[1] = system: PC-3; test: Growth inhibition of human PC-3 cells assessed as growth percentage at 10 uM incubated for 48 hrs by sulforhodamine B assay relative to control; details: read-out: Activity
[2] = system: TK-10; test: Growth inhibition of human TK-10 cells assessed as growth percentage at 10 uM incubated for 48 hrs by sulforhodamine B assay relative to control; details: read-out: Activity
[3] = system: M14; test: Growth inhibition of human M14 cells assessed as growth percentage at 10 uM incubated for 48 hrs by sulforhodamine B assay relative to control; details: read-out: Activity
[4] = system: LOX IMVI; test: Growth inhibition of human LOX IMVI cells assessed as growth percentage at 10 uM incubated for 48 hrs by sulforhodamine B assay relative to control; details: read-out: Activity
[5] = system: SF-268; test: Growth inhibition of human SF-268 cells assessed as growth percentage at 10 uM incubated for 48 hrs by sulforhodamine B assay relative to control; details: read-out: Activity
[6] = system: KM12; test: Growth inhibition of human KM12 cells assessed as growth percentage at 10 uM incubated for 48 hrs by sulforhodamine B assay relative to control; details: read-out: Activity
[7] = system: MOLT-4; test: Growth inhibition of human MOLT-4 cells assessed as growth percentage at 10 uM incubated for 48 hrs by sulforhodamine B assay relative to control; details: read-out: Activity
[8] = system: T47D; test: Growth inhibition of human T47D cells incubated for 48 hrs by sulforhodamine B assay; details: for GI50: 48 h
[9] = system: RXF 393; test: Growth inhibition of human RXF 393 cells incubated for 48 hrs by sulforhodamine B assay
[10] = system: NCI/ADR-RES; test: Growth inhibition of human NCI/ADR-RES cells incubated for 48 hrs by sulforhodamine B assay; details: for CC50: read-out: LC50 (the source's name)
[11] = system: SW-620; test: Growth inhibition of human SW-620 cells incubated for 48 hrs by sulforhodamine B assay; details: for CC50: read-out: LC50 (the source's name)
[12] = system: NCI-H226; test: Growth inhibition of human NCI-H226 cells incubated for 48 hrs by sulforhodamine B assay; details: for CC50: read-out: LC50 (the source's name); for TGI: NCI-H226
[13] = system: RPMI-8226; test: Growth inhibition of human RPMI-8226 cells incubated for 48 hrs by sulforhodamine B assay
[14] = system: K562; test: Growth inhibition of human K562 cells incubated for 48 hrs by sulforhodamine B assay
[15] = system: HCT-116; test: Antiproliferative activity against human HCT-116 cells assessed as cell growth inhibition at 10 uM measured after 72 hrs by MTT assay relative to control; details: read-out: GI
[16] = system: MCF7; test: Antiproliferative activity against human MCF7 cells assessed as cell growth inhibition at 10 uM measured after 72 hrs by MTT assay relative to control; details: read-out: GI
[17] = system: Hs-578T; test: Growth inhibition of human Hs-578T cells assessed as growth percentage at 100 uM incubated for 48 hrs by sulforhodamine B assay relative to control; details: read-out: Activity
[18] = system: MCF7; test: Growth inhibition of human MCF7 cells assessed as growth percentage at 100 uM incubated for 48 hrs by sulforhodamine B assay relative to control; details: read-out: Activity
[19] = system: HOP-62; test: Growth inhibition of human HOP-62 cells assessed as growth percentage at 100 uM incubated for 48 hrs by sulforhodamine B assay relative to control; details: read-out: Activity
[20] = system: OVCAR-4; test: Growth inhibition of human OVCAR-4 cells assessed as growth percentage at 1 uM incubated for 48 hrs by sulforhodamine B assay relative to control; details: read-out: Activity
[21] = system: SF-268; test: Growth inhibition of human SF-268 cells assessed as growth percentage at 1 uM incubated for 48 hrs by sulforhodamine B assay relative to control; details: read-out: Activity
[22] = system: NCI-H522; test: Growth inhibition of human NCI-H522 cells assessed as growth percentage at 1 uM incubated for 48 hrs by sulforhodamine B assay relative to control; details: read-out: Activity
[23] = system: NCI-H460; test: Growth inhibition of human NCI-H460 cells assessed as growth percentage at 1 uM incubated for 48 hrs by sulforhodamine B assay relative to control; details: read-out: Activity
[24] = system: MDA-MB-231; test: Growth inhibition of human MDA-MB-231/ATCC cells assessed as growth percentage at 0.1 uM incubated for 48 hrs by sulforhodamine B assay relative to control; details: read-out: Activity
[25] = system: UO-31; test: Growth inhibition of human UO-31 cells assessed as growth percentage at 0.1 uM incubated for 48 hrs by sulforhodamine B assay relative to control; details: read-out: Activity
[26] = system: UACC-257; test: Growth inhibition of human UACC-257 cells assessed as growth percentage at 0.1 uM incubated for 48 hrs by sulforhodamine B assay relative to control; details: read-out: Activity
[27] = system: SNB-19; test: Growth inhibition of human SNB-19 cells assessed as growth percentage at 0.1 uM incubated for 48 hrs by sulforhodamine B assay relative to control; details: read-out: Activity
[28] = system: SF-268; test: Growth inhibition of human SF-268 cells assessed as growth percentage at 0.1 uM incubated for 48 hrs by sulforhodamine B assay relative to control; details: read-out: Activity
[29] = system: SW-620; test: Growth inhibition of human SW-620 cells assessed as growth percentage at 0.1 uM incubated for 48 hrs by sulforhodamine B assay relative to control; details: read-out: Activity
[30] = system: HT-29; test: Growth inhibition of human HT-29 cells assessed as growth percentage at 0.1 uM incubated for 48 hrs by sulforhodamine B assay relative to control; details: read-out: Activity
[31] = system: COLO 205; test: Growth inhibition of human COLO 205 cells assessed as growth percentage at 0.1 uM incubated for 48 hrs by sulforhodamine B assay relative to control; details: read-out: Activity
[32] = system: NCI-H322M; test: Growth inhibition of human NCI-H322M cells assessed as growth percentage at 0.1 uM incubated for 48 hrs by sulforhodamine B assay relative to control; details: read-out: Activity
[33] = system: MDA-MB-231; test: Growth inhibition of human MDA-MB-231/ATCC cells assessed as growth percentage at 0.01 uM incubated for 48 hrs by sulforhodamine B assay relative to control; details: read-out: Activity
[34] = system: NCI/ADR-RES; test: Growth inhibition of human NCI/ADR-RES cells assessed as growth percentage at 0.01 uM incubated for 48 hrs by sulforhodamine B assay relative to control; details: read-out: Activity
[35] = system: UACC-257; test: Growth inhibition of human UACC-257 cells assessed as growth percentage at 0.01 uM incubated for 48 hrs by sulforhodamine B assay relative to control; details: read-out: Activity
[36] = system: M14; test: Growth inhibition of human M14 cells assessed as growth percentage at 0.01 uM incubated for 48 hrs by sulforhodamine B assay relative to control; details: read-out: Activity
[37] = system: SF-295; test: Growth inhibition of human SF-295 cells assessed as growth percentage at 0.01 uM incubated for 48 hrs by sulforhodamine B assay relative to control; details: read-out: Activity
[38] = system: SR; test: Growth inhibition of human SR cells assessed as growth percentage at 0.01 uM incubated for 48 hrs by sulforhodamine B assay relative to control; details: read-out: Activity

Work on Nc1nc2[nH]c(CN3CCN(c4cc(Cl)cc(Cl)c4)CC3)c(CN3CCN(c4cc(Cl)cc(Cl)c4)CC3)c2c(=O)[nH]1 yielded a growth at 10 µM [1] of 59.6%, a growth at 10 µM [2] of 77.1% and a growth at 10 µM [3] of 79.7%. For the same compound, the growth at 10 µM [4] was 26.3%, the growth at 10 µM [5] was 81.2% and the growth at 10 µM [6] was 64.2%. It also gave a growth at 10 µM [7] of 23.6%, a TGI ([8]; Homo sapiens, T47D) of 4.02 µM and a GI50 ([8]; Homo sapiens, T47D) of 1.78 µM. The GI50 [9] was 1.58 µM, the TGI [9] was 3.07 µM and the TGI [10] was 100 µM and > 1 µM. The CC50 [10] was greater than 100 µM, the GI50 ([11]; Homo sapiens, SW-620, 48 h) was 1.72 µM and the TGI ([11]; Homo sapiens, SW-620, 48 h) was 3.5 µM. For the same compound, the CC50 ([11]; Homo sapiens, SW-620, 48 h) was 7.12 µM, the GI50 ([12]; 48 h) was 1.58 µM and 15.8 µM and the CC50 ([12]; 48 h) was greater than 100 µM. It also gave a TGI ([12]; Homo sapiens) of 5.37 µM, a TGI ([13]; Homo sapiens, RPMI-8226) of 6.92 µM and a GI50 ([13]; Homo sapiens, RPMI-8226, 48 h) of 2.41 µM. It also gave a GI50 ([14]; Homo sapiens, K562, 48 h) of 2.33 µM, an inhibition of growth at 10 µM [15] of 91.7% and an inhibition of growth at 10 µM [16] of 82.5%. For the same compound, the growth at 100 µM [17] was -25%, the growth at 100 µM [18] was -48% and the growth at 100 µM [19] was -38%. The growth at 1 µM [20] was 83%, the growth at 1 µM [21] was 94% and the growth at 1 µM [22] was 91%. The growth at 1 µM [23] was 98%, the growth at 0.1 µM [24] was 98% and the growth at 0.1 µM [25] was 92%. For the same compound, the growth at 0.1 µM [26] was 99%, the growth at 0.1 µM [27] was 91% and the growth at 0.1 µM [28] was 102%. It also gave a growth at 0.1 µM [29] of 94%, a growth at 0.1 µM [30] of 110% and a growth at 0.1 µM [31] of 101%. The growth at 0.1 µM [32] was 102%, the growth at 0.01 µM [33] was 106% and the growth at 0.01 µM [34] was 101%. It also gave a growth at 0.01 µM [35] of 96%, a growth at 0.01 µM [36] of 93% and a growth at 0.01 µM [37] of 87%. For the same compound, the growth at 0.01 µM [38] was 102%.

CCCCCCCC(=O)Nc1nc2[nH]c(CN3CCN(Cc4cccc(F)c4)CC3)c(CN3CCN(Cc4cccc(F)c4)CC3)c2c(=O)[nH]1 showed a growth at 10 µM [1] of -95.1%, a growth at 10 µM [2] of -65% and a growth at 10 µM [3] of -91.3%. For the same compound, the growth at 10 µM [4] was -88.5%, the growth at 10 µM [5] was -92.2% and the growth at 10 µM [6] was -88.9%. The growth at 10 µM [7] was -40%, the GI50 [8] was 0.16 µM and 1.6 µM and the TGI ([8]; Homo sapiens, T47D) was 3.47 µM. For the same compound, the CC50 ([8]; Homo sapiens, T47D, read-out: LC50 (the source's name)) was 7.53 µM, the GI50 [9] was 0.51 µM and the LC50 (concentration killing 50% of cells) [9] was 4.45 µM. For the same compound, the TGI [9] was 1.74 µM, the GI50 ([10]; Homo sapiens, NCI/ADR-RES) was 1.5 µM and the TGI ([10]; Homo sapiens, NCI/ADR-RES) was 3.01 µM. The CC50 ([10]; Homo sapiens, NCI/ADR-RES) was 6.04 µM, the GI50 ([11]; 48 h) was 0.19 µM and the TGI ([11]; 48 h) was 0.38 µM. The CC50 ([11]; 48 h) was 0.74 µM, the GI50 ([11]; Homo sapiens, SW-620, 48 h) was 0.191 µM and the TGI ([11]; Homo sapiens, SW-620, 48 h) was 0.377 µM. For the same compound, the CC50 ([11]; Homo sapiens, SW-620, 48 h) was 0.744 µM, the TGI ([12]; Homo sapiens) was 3.84 µM and the GI50 ([12]; Homo sapiens, NCI-H226, 48 h) was 1.84 µM. The CC50 ([12]; Homo sapiens, NCI-H226, 48 h) was 8.04 µM, the GI50 ([13]; 48 h) was 0.36 µM and the LC50 ([13]; 48 h) was 100 µM and > 1 µM. It also gave a GI50 ([13]; Homo sapiens, RPMI-8226, 48 h) of 0.363 µM, a GI50 ([14]; 48 h) of 0.21 µM and an LC50 (concentration killing 50% of cells) ([14]; 48 h) greater than 100 µM. The TGI ([14]; 48 h) was 0.55 µM, the GI50 ([14]; Homo sapiens, K562, 48 h) was 0.205 µM and the LC50 (concentration killing 50% of cells) ([14]; Homo sapiens, K562, 48 h) was 100 µM. It also gave a TGI ([14]; Homo sapiens, K562, 48 h) of 0.545 µM, an inhibition of growth at 10 µM [15] of 95.5% and an inhibition of growth at 10 µM [16] of 94.8%. It also gave a growth at 100 µM [17] of -40%, a growth at 100 µM [18] of -63% and a growth at 100 µM [19] of -95%. The growth at 1 µM [20] was 63%, the growth at 1 µM [21] was 65% and the growth at 1 µM [22] was 100%. For the same compound, the growth at 1 µM [23] was 11%, the growth at 0.1 µM [24] was 108% and the growth at 0.1 µM [25] was 84%. The growth at 0.1 µM [26] was 94%, the growth at 0.1 µM [27] was 98% and the growth at 0.1 µM [28] was 95%. The growth at 0.1 µM [29] was 97%, the growth at 0.1 µM [30] was 104% and the growth at 0.1 µM [31] was 92%. The growth at 0.1 µM [32] was 92%, the growth at 0.01 µM [33] was 105% and the growth at 0.01 µM [34] was 100%. The growth at 0.01 µM [35] was 89%, the growth at 0.01 µM [36] was 100% and the growth at 0.01 µM [37] was 97%. The growth at 0.01 µM [38] was 92%.

Reference: ChEMBL document CHEMBL4673219, “Novel 5,6-disubstituted pyrrolo[2,3-d]pyrimidine derivatives as broad spectrum antiproliferative agents: Synthesis, cell based assays, kinase profile and molecular docking study” (Bioorg Med Chem, 2018)
